Laboratory results taken from patent US20100285959A1, “HERBICIDAL MIXTURES” (priority 2006, published 2010).

Key:
winter wheat (TRZAW) = assay: Test 21 growth chamber, postemergence; format: in vivo, Triticum aestivum; details: 19 DAA
Procedure: A test was conducted to evaluate the effects on winter barley (HORVW, Hordeum vulgare L.), winter wheat (TRZAW, Triticum aestivum L.), and several weed species, of mixtures of Compound 2 with the commercial herbicide (2,4-dichlorophenoxy)acetic acid (2,4-D), an auxin mimic. […] Plants were treated postemergence at the 2-4 leaf growth stage, and each treatment was replicated one time. […] Plants were watered as needed. […] Results are from single replicates.

yellow foxtail (SETLU) = assay: Test 5 field trial, postemergence; format: in vivo, Setaria glauca
Text: (§1) Corn seeds (hybrid ‘Pioneer 38H69’) were planted in mid spring season, 5.1 cm deep in a silty clay loam soil having 3% organic matter and a pH of 6.5. Plots were 9.1 m long by 3.0 m wide with rows spaced 76 cm apart. The field was managed using conventional tillage practices. […] All treatments included a surfactant except glufosinate treatments, both alone and in combination. […] Results are summarized in Table 5 and are the means of the three replicates.

corn (ZEAMD) = assay: Test 6 field trial, postemergence; format: in vivo, Zea mays ssp. indentata
Text: Corn seeds (hybrid ‘Pioneer 35Y62’) were planted in mid spring season, 3.8 cm deep in a silt loam soil having 4% organic matter and a pH of 5.8. Plots were 10.7 m long by 1.5 m wide with rows spaced 76 cm apart. Seeds were spaced 18 cm apart within the rows. The field was managed using conventional tillage practices. […] All treatments included a surfactant except glufosinate treatments, both alone and in combination. […] Results are summarized in Table 6 and are the means of the three replicates.

common waterhemp (AMATA) = assay: Test 10 field trial, preemergence; format: in vivo, Amaranthus tamariscinus; details: 28 DAA
Text: (§2) Corn seeds (hybrid ‘Pioneer 33P65 RR’) were planted in mid spring season, 2.5 cm deep in a silt loam soil. Plots were 9.1 m long by 3.0 m wide with rows spaced 76 cm apart. The field was managed using conventional tillage practices. […] Results are the means of the three replicates.

giant foxtail (SETFA) [1] = assay: Test 10 field trial, preemergence; format: in vivo, Setaria faberi; details: 28 DAA
Text: as §2

shepherd's purse (CAPBP) = assay: Test 5 field trial, postemergence; format: in vivo, Capsella bursa-pastoris
Text: as §1

arrowleaf sida (SIDRH) = assay: Test 11 field trial, preemergence; format: in vivo, Sida rhombifolia
Text: Corn seeds (hybrid ‘Pioneer 3041’) were planted in mid spring season, 5 cm deep in a clay soil having 2.6% organic matter and a pH of 5.6. Plots were 8 m long by 1.5 m wide with rows spaced 80 cm apart. Seeds were spaced 15 cm apart within the rows. The field was managed using conventional tillage practices. […] Treatments consisted of Compound 2 or
Goosegrass was not evaluated 16 or 91 days after application.

giant foxtail (SETFA) [2] = assay: Test 5 field trial, postemergence; format: in vivo, Setaria faberi
Text: as §1

field pennycress (THLAR) = assay: Test 1 field trial, preemergence; format: in vivo, Thlaspi arvense; details: 28 DAA
Text: Corn seeds (hybrid ‘Pioneer 34N43’) were planted in mid spring season, 3.8 cm deep in a silt loam soil having 4.6% organic matter and a pH of 6. Plots were 10.7 m long by 1.5 m wide with rows spaced 76 cm apart. Seeds were spaced 18 cm apart within the rows. The field was managed using conventional tillage practices. […] Results are summarized in Table 1 and are the means of the three replicates. […] Colby's Equation (Colby, S. R. “Calculating Synergistic and Antagonistic Responses of Herbicide Combinations,” Weeds, 15(1), pp 20-22 (1967)) calculates the expected additive effect of herbicidal mixtures, and for two active ingredients is of the form:
Pa+b=Pa+Pb−(PaPb/100) • wherein Pa+b is the percentage effect of the mixture expected from additive contribution of the individual components, • Pa is the observed percentage effect of the first active ingredient at the same use rate as in the mixture, and • Pb is the observed percentage effect of the second active ingredient at the same use rate as in the mixture.

[3] = 16 DAA, atrazine 1120, glufosinate 470 or glyphosate 1120 g a.i./ha alone
[4] = 31 DAA, atrazine 1120, glufosinate 470 or glyphosate 1120 g a.i./ha alone
[5] = g a.i./ha: Cpd 2 100, Atrazine 1680, S-Metolachlor 1870
[6] = g a.i./ha: Atrazine 1680, S-Metolachlor 1870
[7] = 16 DAA, Cpd 2/Cpd 1 at 62 g a.i./ha, alone or + atrazine 1500 or metolachlor 2500
[8] = 16 DAA, Cpd 2/Cpd 1 at 125 g a.i./ha, alone or + atrazine 1500 or metolachlor 2500
[9] = 30 DAA, Cpd 2/Cpd 1 at 62 g a.i./ha, alone or + atrazine 1500 or metolachlor 2500
[10] = 30 DAA, Cpd 2/Cpd 1 at 125 g a.i./ha, alone or + atrazine 1500 or metolachlor 2500
[11] = 62 DAA, 62 g a.i./ha, scale 0 to 100
[12] = 62 DAA, 125 g a.i./ha, scale 0 to 100
[13] = 91 DAA, 62 g a.i./ha, scale 0 to 100
[14] = 91 DAA, 125 g a.i./ha, scale 0 to 100
[15] = 16 DAA, Cpd 2 30 g a.i./ha alone or with glufosinate 470 or glyphosate 1120
[16] = 16 DAA, Cpd 2 60 g a.i./ha alone or with atrazine 1120, glufosinate 470 or glyphosate 1120
[17] = 31 DAA, Cpd 2 30 g a.i./ha alone or with glufosinate 470 or glyphosate 1120
[18] = 31 DAA, Cpd 2 60 g a.i./ha alone or with atrazine 1120, glufosinate 470 or glyphosate 1120
[19] = g a.i./ha: Cpd 2 50, S-Metolachlor 1870
[20] = g a.i./ha: Cpd 2 150, S-Metolachlor 1870

## O=C(O)COc1ccc(Cl)cc1Cl [2,4-D, (2,4-dichlorophenoxy)acetic acid]
Winter wheat (TRZAW); 2,4-D alone 125 g a.i./ha
  Postemergence TRZAW Obs: 35
Winter wheat (TRZAW); 2,4-D alone 250 g a.i./ha
  Postemergence TRZAW Obs: 40

## CCNc1nc(Cl)nc(NC(C)C)n1 [Atrazine, atrazine, reference compound]
Yellow foxtail (SETLU); [3]
  SETLU Obs: 0%
Yellow foxtail (SETLU); [4]
  SETLU Obs: 0%
Corn (ZEAMD); 14 DAA, 1120 g a.i./ha
  ZEAMD Obs: 0%
Corn (ZEAMD); 28 DAA, 1120 g a.i./ha
  ZEAMD Obs: 0%
Common waterhemp (AMATA); [5]
  AMATA Obs: 83%
Giant foxtail (SETFA) [1]; [5]
  SETFA Obs: 23%
shepherd's purse (CAPBP); [3]
  CAPBP Obs: 95%
shepherd's purse (CAPBP); [4]
  CAPBP Obs: 100%
Arrowleaf sida (SIDRH); 16 DAA, atrazine 1500 or metolachlor 2500 g a.i./ha alone
  SIDRH Obs: 97
Arrowleaf sida (SIDRH); 30 DAA, atrazine 1500 or metolachlor 2500 g a.i./ha alone
  SIDRH Obs: 100
Arrowleaf sida (SIDRH); 44 DAA, atrazine 1500 or metolachlor 2500 g a.i./ha alone
  SIDRH Obs: 95
Arrowleaf sida (SIDRH); 62 DAA, 1500 g a.i./ha, scale 0 to 100
  SIDRH Obs: 80
Arrowleaf sida (SIDRH); 91 DAA, 1500 g a.i./ha, scale 0 to 100
  SIDRH Obs: 90
Giant foxtail (SETFA) [2]; [3]
  SETFA Obs: 0%
Giant foxtail (SETFA) [2]; [4]
  SETFA Obs: 0%
Field pennycress (THLAR); [6]
  THLAR Obs: 93

## Nc1nc(C2CC2)nc(C(=O)O)c1Cl [Compound 1, 6-amino-5-chloro-2-cyclopropyl-4-pyrimidinecarboxylic acid]
Arrowleaf sida (SIDRH); [7]
  SIDRH Obs: 40
Arrowleaf sida (SIDRH); [8]
  SIDRH Obs: 75
Arrowleaf sida (SIDRH); [9]
  SIDRH Obs: 60
Arrowleaf sida (SIDRH); [10]
  SIDRH Obs: 65
Arrowleaf sida (SIDRH); 44 DAA, 62 g a.i./ha, scale 0 to 100
  SIDRH Obs: 75
Arrowleaf sida (SIDRH); 44 DAA, 125 g a.i./ha, scale 0 to 100
  SIDRH Obs: 95
Arrowleaf sida (SIDRH); [11]
  SIDRH Obs: 40
Arrowleaf sida (SIDRH); [12]
  SIDRH Obs: 95
Arrowleaf sida (SIDRH); [13]
  SIDRH Obs: 0
Arrowleaf sida (SIDRH); [14]
  SIDRH Obs: 100

## COC(=O)c1nc(C2CC2)nc(N)c1Cl [Compound 2, methyl 6-amino-5-chloro-2-cyclopropyl-4-pyrimidinecarboxylate]
Yellow foxtail (SETLU); [15]
  SETLU Obs: 2%
Yellow foxtail (SETLU); [16]
  SETLU Obs: 0%
Yellow foxtail (SETLU); [17]
  SETLU Obs: 0%
Yellow foxtail (SETLU); [18]
  SETLU Obs: 2%
Winter wheat (TRZAW); Cpd 2 alone 16 g a.i./ha
  Postemergence TRZAW Obs: 50
Corn (ZEAMD); hybrid Pioneer 35Y62, corn (Zea mays ssp. indentata), in vivo, 14 days after application
  ZEAMD Obs: 0%
Corn (ZEAMD); hybrid Pioneer 35Y62, corn (Zea mays ssp. indentata), in vivo, 28 days after application
  ZEAMD Obs: 0%
Common waterhemp (AMATA); [19]
  AMATA Obs: 20%
Common waterhemp (AMATA); [5]
  AMATA Obs: 10%
Common waterhemp (AMATA); [20]
  AMATA Obs: 23%
Giant foxtail (SETFA) [1]; [19]
  SETFA Obs: 13%
Giant foxtail (SETFA) [1]; [5]
  SETFA Obs: 7%
Giant foxtail (SETFA) [1]; [20]
  SETFA Obs: 20%
shepherd's purse (CAPBP); [15]
  CAPBP Obs: 25%
shepherd's purse (CAPBP); [16]
  CAPBP Obs: 28%
shepherd's purse (CAPBP); [17]
  CAPBP Obs: 0%
shepherd's purse (CAPBP); [18]
  CAPBP Obs: 2%
Arrowleaf sida (SIDRH); [7]
  SIDRH Obs: 20
Arrowleaf sida (SIDRH); [8]
  SIDRH Obs: 40
Arrowleaf sida (SIDRH); [9]
  SIDRH Obs: 40
Arrowleaf sida (SIDRH); [10]
  SIDRH Obs: 70
Arrowleaf sida (SIDRH); 44 DAA, Cpd 2/Cpd 1 at 62 g a.i./ha, alone or + atrazine 1500 or metolachlor 2500
  SIDRH Obs: 40
Arrowleaf sida (SIDRH); 44 DAA, Cpd 2/Cpd 1 at 125 g a.i./ha, alone or + atrazine 1500 or metolachlor 2500
  SIDRH Obs: 75
Arrowleaf sida (SIDRH); [11]
  SIDRH Obs: 0
Arrowleaf sida (SIDRH); [12]
  SIDRH Obs: 40
Arrowleaf sida (SIDRH); [13]
  SIDRH Obs: 0
Arrowleaf sida (SIDRH); [14]
  SIDRH Obs: 40
Giant foxtail (SETFA) [2]; [15]
  SETFA Obs: 0%
Giant foxtail (SETFA) [2]; [16]
  SETFA Obs: 0%
Giant foxtail (SETFA) [2]; [17]
  SETFA Obs: 0%
Giant foxtail (SETFA) [2]; [18]
  SETFA Obs: 2%
Field pennycress (THLAR); [19]
  THLAR Obs: 0
Field pennycress (THLAR); [5]
  THLAR Obs: 0
Field pennycress (THLAR); [20]
  THLAR Obs: 7

## O=C(O)CNCP(=O)(O)O [Glyphosate]
Yellow foxtail (SETLU); [3]
  SETLU Obs: 100%
Yellow foxtail (SETLU); [4]
  SETLU Obs: 98%
Corn (ZEAMD); 14 DAA, 1120 g a.i./ha
  ZEAMD Obs: 0%
Corn (ZEAMD); 28 DAA, 1120 g a.i./ha
  ZEAMD Obs: 0%
shepherd's purse (CAPBP); [3]
  CAPBP Obs: 98%
shepherd's purse (CAPBP); [4]
  CAPBP Obs: 100%
Giant foxtail (SETFA) [2]; [3]
  SETFA Obs: 100%
Giant foxtail (SETFA) [2]; [4]
  SETFA Obs: 98%

## CCc1cccc(C)c1N(C(=O)CCl)[C@@H](C)COC [S-Metolachlor, S-metolachlor, reference compound]
Common waterhemp (AMATA); [5]
  AMATA Obs: 70%
Giant foxtail (SETFA) [1]; [5]
  SETFA Obs: 63%
Field pennycress (THLAR); [6]
  THLAR Obs: 58
